In patent US20120258980A1, “Antibacterial Agent for Drug-Resistant Bacteria, Method for Screening for Same, and Use of Same” (priority 2009, published 2012):

Legend:
[1] = test system: methicillin-susceptible S. aureus (MSSA), MRSA and mutants thereof; assay: MIC measurement, Test Example 3 (MSSA, MRSA and sequential gyrA/grlA quinolone-resistant mutants); format: cell-based, Staphylococcus aureus; details: for MIC: Staphylococcus aureus
Source text: That is, the first-step quinolone-resistant mutants are bacterial strains which are the same as their parent strains (clinical isolates) except that the genes shown in the corresponding parts of Table 1-1 are mutated. The second-step quinolone-resistant mutants are bacterial strains which are the same as the first-step quinolone-resistant mutants except that the genes shown in the corresponding parts of Table 1-1 are further mutated. The third-step quinolone-resistant mutants are bacterial strains which are the same as the second-step quinolone-resistant mutants except that the genes shown in the corresponding parts of Table 1-1 are further mutated. The fourth-step quinolone-resistant strain is a bacterial strain which is the same as the third-step quinolone-resistant mutant bacteria except that the gene shown in the corresponding part of Table 1-1 is further mutated.
(§1) Each of the bacterial strains listed in Table 1-1 was shake-cultured at 37° C. overnight in 4 mL of a medium (Tryptical Soy Broth: TSB, product of Becton Dickinson and Company). FDA209P was used as a control.
(§2) After completion of culturing, the resultant culture was suspended in a cation-adjusted Mueller Hinton Broth (CAMHB, product of Becton Dickinson and Company). Then, the obtained bacterial culture was adjusted in absorbance with the CAMHB so that the absorbance at 578 nm of the bacterial culture was adjusted to 0.3 measured by an absorption spectrometer. In addition, the resultant bacterial culture was 500-fold diluted with the CAMHB.
(§3) Each of the 500-fold diluted, pre-cultured bacterial cultures was added at 50 μL/well to the CAMHB containing the quinolones and the nybomycins at various concentrations (50 μL/well), followed by statically culturing at 37° C. overnight.
(§4) After completion of culturing, the growth of the bacteria was visually determined based on turbidity to measure MIC in each bacterial strain.

[2] = test system: MRSA, CA-MRSA and MSSA of Staphylococcus aureus; assay: MIC measurement, Test Example 4 (MRSA, CA-MRSA and MSSA strains); format: cell-based; details: for MIC: Staphylococcus aureus
Method in brief: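 S. aureus strains (FDA209P control) grown overnight in TSB at 37° C, resuspended in CAMHB, adjusted to A578 0.3 and diluted 500-fold. Equal volume added to CAMHB with serial compound concentrations, incubated statically overnight at 37° C. MIC read visually as lowest concentration without turbidity.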

[3] = test system: VISA clinical isolates of MRSA (VI-MRSA) and of MSSA (VI-MSSA); assay: microbe, parasite or virus in culture; format: cell-based, Staphylococcus aureus
Procedure: as §1, §2, §3, §4
Here, the glycopeptides used were VCM and TEIC. The β-lactam used was OXA.

Cc1cc(=O)n(C)c2c3c4c(cc12)c(C)cc(=O)n4CO3 [DNM, deoxynybomycin]
0.5 µg/mL: MIC ([1]; MS5935-2, second-step mutant, further gyrA S84L) | MIC ([1]; MS5935-3, third-step mutant, further grlA E84K) | MIC ([1]; MS5952-2, second-step mutant, further gyrA S84L) | MIC ([3]; Staphylococcus aureus, HIP06854, VI-MRSA, America) | MIC ([3]; Staphylococcus aureus, HIP07930, VI-MRSA, America)
32 µg/mL: MIC ([2]; ISA12-1, MRSA) | MIC ([2]; KBSA32, MRSA) | MIC ([2]; N315, MRSA)
64 µg/mL: MIC ([2]; ISA35-1, MRSA) | MIC ([2]; MW2, CA-MRSA)
higher than that of NM: antibacterial activity, comparison between NM and DNM ([1]; Table 1-2 strains) | antibacterial activity, comparison between NM and DNM ([2]; against Staphylococcus aureus)
1 µg/mL: MIC ([3]; Staphylococcus aureus, 99/3759-V, VI-MRSA, The United Kingdom)
≤ 0.063 µg/mL: MIC ([1]; MR5867-2, second-step mutant, further gyrA S84L) | MIC ([1]; MR5867-3, third-step mutant, further grlA S80F) | MIC ([1]; MR5867-4, fourth-step mutant, further gyrA E88K) | MIC ([1]; MS5952-3, third-step mutant, further grlA A116V) | MIC ([2]; KBSA72, MRSA) | MIC ([2]; KBSA96, MRSA) | MIC ([2]; KBSA171, MRSA) | MIC ([2]; KSA36, MRSA) | MIC ([3]; Staphylococcus aureus, A7 (JCSC4842), VI-MRSA, Taiwan)
0.25 µg/mL: MIC ([2]; KSA31, MRSA) | MIC ([3]; Staphylococcus aureus, 99/3700-W, VI-MRSA, The United Kingdom) | MIC ([3]; Staphylococcus aureus, BR1, VI-MRSA, Brazil) | MIC ([3]; Staphylococcus aureus, BR4, VI-MRSA, Brazil) | MIC ([3]; Staphylococcus aureus, BR5, VI-MRSA, Brazil) | MIC ([3]; Staphylococcus aureus, HIP07920, VI-MRSA, America)
16 µg/mL: MIC ([2]; ATCC 29213 / MRSA / MSSA, ATCC 29213, MSSA) | MIC ([2]; ISA12-2, MRSA) | MIC ([2]; ISA49-1, MSSA)
0.125 µg/mL: MIC ([2]; KSA24, MRSA) | MIC ([2]; MRSA / MSSA / USA300, USA300 FPR3757, CA-MRSA) | MIC ([3]; Staphylococcus aureus, 28160, VI-MRSA, South African Republic) | MIC ([3]; Staphylococcus aureus, 98141, VI-MRSA, France) | MIC ([3]; Staphylococcus aureus, AMC11094, VI-MRSA, Korea) | MIC ([3]; Staphylococcus aureus, B7 (JCSC4852), VI-MRSA, Taiwan) | MIC ([3]; Staphylococcus aureus, BR2, VI-MRSA, Brazil) | MIC ([3]; Staphylococcus aureus, BR3, VI-MRSA, Brazil) | MIC ([3]; Staphylococcus aureus, HIP06297, VI-MRSA, America)
8 µg/mL: MIC ([2]; FDA209P / MRSA / MSSA, FDA209P, MSSA) | MIC ([2]; ISA51-1, MSSA) | MIC ([2]; ISA58-1, MRSA)
> 64 µg/mL: MIC ([2]; COL, MRSA) | MIC ([2]; ISA37-1, MSSA) | MIC ([2]; ISA56-3, MRSA) | MIC ([2]; ISA62-1, MRSA) | MIC ([2]; ISA73-1, MSSA) | MIC ([2]; KBSA34, MRSA) | MIC ([2]; MRSA / MSSA / NCTC 8325, NCTC 8325, MSSA)
